Read-outs that look alike come from different tables or passages of the source.

One data set concerns the target T1, Renilla luciferase (Renilla reniformis, UniProt P27652).
T1 sequence (P27652 1-311): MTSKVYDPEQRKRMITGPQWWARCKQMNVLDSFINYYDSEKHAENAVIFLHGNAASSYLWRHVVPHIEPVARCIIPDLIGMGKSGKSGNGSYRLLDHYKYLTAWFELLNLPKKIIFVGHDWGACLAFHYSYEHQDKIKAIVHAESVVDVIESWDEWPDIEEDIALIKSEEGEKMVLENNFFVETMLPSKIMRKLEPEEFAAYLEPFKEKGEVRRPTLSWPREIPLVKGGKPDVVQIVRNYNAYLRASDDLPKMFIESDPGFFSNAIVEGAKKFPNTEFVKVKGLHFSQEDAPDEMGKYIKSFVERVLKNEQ
Conditions: cited from earlier work.

A further data set deals with mice. Kind of data set: Repeated i.p. administration, gross signs of toxicity in behavior. Type of data set: in vivo. The following applies: 1 mg/kg i.p., daily administration for three days. As to the method:
[…] Mice are examined over the course of the study for any gross signs of toxicity as evidenced in their behavior. At the end of the one-week period, blood is collected by cardiac puncture immediately prior to sacrifice. Animals are sacrificed and ten different tissue samples are removed post mortem from each animal. Isolated tissues are fixed, stained, blocked and sectioned. The pathology of the tissue samples are analyzed and the toxicology data are compiled.

Data set [1] is classed as physicochemical. From the text: Coelenterazine is not terribly soluble in non-irritant vehicles. Coelenterazine is soluble to at least to a concentration of 200 micrograms/mL in a solution of 2% (w/v) PEG 400 containing about 0.8% (w/v) NaCl. Although this solution is slightly hypertonic, it is not an irritant for vehicle purposes.
In a further data set the test system is HeLa cells. The data set is described as follows: Functional expression of Renilla mulleri GFP in mammalian cells. Conditions: 30 micrograms pcDNA-Renilla mulleri GFP DNA, 37° C., 8 hours, CMV promoter. Type of data set: cell-based. From the text:
HeLa cells were transfected with the plasmid pcDNA3.1(+) containing Renilla mulleri GFP under the control of a CMV promoter (construct No. B(1) as described above). […]
The fluorescence was localized to pairs of cells that were undergoing, or apparently had recently undergone, a single round of cell-division. […] This is in contrast to the Aequorea GFP, which folds inefficiently into a functional form under the physiological conditions.
Filters (470/40 excitation filter, 495 excitation dichroic filter and 525/50 emission filter) used in visualization of R. mulleri GFP fluorescence in HeLa cells were the Endo GFP filter set sold by Chroma.

Where [2] appears, read: Renilla luciferase, in the presence of Renilla GFP.
The mark [3] stands for this setting: Renilla luciferase, without GFP.

As for `O=C(Cc1ccc(O)cc1)NC1N=CC(c2ccccc2)=NC1Cc1ccccc1` (stereo not drawn) [coelenterazine of formula (V)], the values for the bioluminescence quantum yield on Renilla luciferase (setting [2]) and on Renilla luciferase (setting [3]) were 2.3% and “about 0.012%”, respectively. Besides, the “peak of emitted light” value at Renilla luciferase (luciferase, upon addition of GFP) is 509 nm.

On to coelenterazine, for which the bioluminescence quantum yield on Renilla luciferase (setting [2]) is on record as 13%; at Renilla luciferase (setting [3]) it was 6.9%. The “increase in the amount of light emitted upon addition of GFP” value on Renilla luciferase (Renilla luciferase, with versus without GFP) is listed as “nearly two-fold”. Also, the gross behavior changes entry in the data set on mice is “no gross behavior changes”. In data set [1], this molecule gave a solubility of at least 200 micrograms/mL.

B1: Renilla mulleri GFP: green fluorescent protein of Renilla mulleri, 238 amino acids, SEQ ID No. 16 (protein, listed as Renilla mulleri)
chain: MSKQILKNTCLQEVMSYKVNLEGIVNNHVFTMEGCGKGNILFGNQLVQIRVTKGAPLPFAFDIVSPAFQYGNRTFTKYPNDISDYFIQSFPAGFMYERTLRYEDGGLVEIRSDINLIEDKFVYRVEYKGSNFPDDGPVMQKTILGIEPSFEAMYMNNGVLVGEVILVYKLNSGKYYSCHMKTLMKSKGVVKEFPSYHFIQHRLEKTYVEDGGFVEQHETAIAQMTSIGKPLGSLHEWV
modifications: Renilla mulleri Green Fluorescent Protein (GFP)
On to B1, for which the “fluorescence of transfected cells” value in the data set with HeLa cells is reported as “highly fluorescent”.

The record behind these values is patent US6436682B1, “Luciferases, fluorescent proteins, nucleic acids encoding the luciferases and fluorescent proteins and the use thereof in diagnostics, high throughput screening and novelty items” (Prolume, Ltd., priority 1998, dated 2002).
